Measured values: US9469616B2, “Cyclic compounds and methods of making and using the same” (Cellceutix Corporation, priority 2011, dated 2016)
Values after ≈ are worked out from the molar mass of the structure shown. Values joined by “and” are separate entries in the source; they are usually repeats but may differ in a detail not shown here. Equal values may be shown once.

What was measured:
Format in all cases: cell-based
[1] = tested on: E. coli (25922); assay: MIC assay (Table 1); conditions: Escherichia coli, isolate 25922
[2] = tested on: S. aureus (27660); assay: MIC assay (Table 1); conditions: Staphylococcus aureus, isolate 27660
[3] = tested on: E. faecalis (29212); assay: MIC assay (Table 1); conditions: Enterococcus faecalis, isolate 29212
Experimental: (§1) The compounds are screened for antimicrobial activity against a number of clinically relevant pathogens. Minimum Inhibitory Concentrations (MIC) of each of the compounds are determined using standard procedures for clinical ocular isolates of Ciprofloxacin Susceptible (CS) S. aureus (CSSA), Ciprofloxacin Resistant (CR) S. aureus (CRSA), CS S. epidermidis (CSSE), CR S. epidermidis (CRSE), St. pneumoniae (SP), St. viridans group (SV), Moraxella Species (MS) (including Moraxella catarrhalis), H. influenzae (HI), P. aeruginosa (PA), Serratia marcescens (SM), S. aureus fluoroquinolone-susceptible, S. aureus fluoroquinolone-resistant, S. epidermidis (Coagulase-negative Staphylococcus) fluoroquinolone-susceptible, S. epidermidis (Coagulase-negative Staphylococcus) fluoroquinolone-resistant, and Serratia marcescens.
(§2) On the day of testing, a 640 μg/m (1280 μg/m for Serratia marcescens and Pseudomonas aeruginosa) concentration is prepared from a 1% stock solution in 0.01% acetic acid, 0.2% BSA in polypropylene tubes.
(§3) Ten μl of diluted 10× test agents is added to each well of one row of the 96 well polypropylene plates from column 2 to column 12 (column 1 is a control for bacteria alone, with no peptide). […] The same peptide is in each of the 8 rows. One plate contains dilutions of one test agent and 8 bacterial isolates.
(§4) Ninety μl of the bacterial suspensions is dispensed in each well from column 1 to column 12. Each bacterial isolate is placed in one row of a 96 well polypropylene plate containing the test agents. The plates are placed on shaker at 15 minutes at room temperature, and then incubated at 37° C. overnight. MICs are determined visually as the lowest concentration of drug that inhibits visible bacterial growth.
(§5) Data is expressed as MIC50 in μg/ml. The bacterial isolates were as follows: E. coli (25922); S. aureus (27660); E. faecalis (29212); P. aeruginosa (10145); and K. pneumoniae (13883).

[4] = tested on: K. pneumoniae (13883); assay: MIC assay (Table 1); conditions: Klebsiella pneumoniae, isolate 13883, read-out: MIC50 K. Pnuemnoiae
Experimental: as §1, §2, §3, §4, §5

[5] = tested on: P. aeruginosa (10145); assay: MIC assay (Table 1); conditions: Pseudomonas aeruginosa, isolate 10145
[6] = tested on: Escherichia coli; assay: Antimicrobial activity (MIC) of aryl compounds (Table 2)
Text: (§6) A new series of aryl compounds was designed to evaluate the effect of charge and aromatic group hydrophobicity on the biological activity while still maintaining an amphiphilic topology. Four and six cationic charges were investigated, and three different central rings were used to tune the overall hydrophobicity: benzene, naphthalene, and phenylbenzene. The hydrophobicities of the aryl compounds were quantified using reversed-phase HPLC retention times (Rt). The antimicrobial activities (expressed as minimum inhibitory concentration (MIC)) of these compounds were tested against four pathogens, including both Gram-negative and Gram-positive bacteria, and their hemolysis (evaluated in terms of HC50, the lowest concentration that causes 50% hemolysis of red blood cells (RBCs)) was tested against human RBCs.

[7] = tested on: Staphylococcus aureus; assay: as above
Text: as §6

[8] = tested on: NIH/3T3 cells; assay: Cytotoxicity colorimetric assay; conditions: Mus musculus, NIH3T3, 1 h, one hour incubation in serum-free media
Experimental: Cytotoxicity of the compounds are evaluated in a colorimetric assay using a transformed human liver cell line (HepG2, HB-8065) and an embryonic mouse cell line (NIH/3T3 cells, CRL-1658). This assay measures the bioreduction of a novel tetrazolium compound to a soluble formazan product by viable cells. HepG2 cells are seeded in 96 well plates at 2×10^4 cells/well in MEM medium with 10% fetal bovine serum (FBS) 24 hours prior to use. NIH/3T3 cells are seeded in 96 well plates at 2×10^4 cells/well in DMEM medium with 10% bovine calf serum (BCS) 24 hours prior to use. Cell monolayers are rinsed in serum-free media and incubated for one hour with a Compound in serum-free media. After incubation, the media is replaced with serum supplemented media and live cells are measured using the Cell Titer 96 Aqueous […] Assay kit (Promega, Madison, Wis.). EC50 values are determined using a four parameter logistic equation: Y=Bottom+(Top−Bottom)/(1+10^((Log EC50−X)*HillSlope)). […] Data is expressed as EC50 in μg/ml. Cytotoxicity is evaluated in a colorimetric assay using a transformed human liver cell line (HepG2, HB-8065) and an embryonic mouse cell line (NIH/3T3 cells, CRL-1658). This assay measures the bioreduction of a novel tetrazolium compound to a soluble formazan product by viable cells. HepG2 cells are seeded in 96 well plates at 3×10^4 cells/well in MEM medium with 10% fetal bovine serum (FBS) 24 hours prior to use. NIH/3T3 cells are seeded in 96 well plates at 2×10^4 cells/well in DMEM medium with 10% bovine calf serum (BCS) 24 hours prior to use. Cell monolayers are rinsed in serum-free media and incubated for one hour with test agent in serum-free media. After incubation, the media is replaced with serum supplemented media and live cells are measured using the Cell Titer 96 Aqueous […] Assay kit (Promega, Madison, Wis.). EC50 values are determined using a four parameter logistic equation: Y=Bottom+(Top−Bottom)/(1+10^((Log EC50−X)*HillSlope)).

With NCCCOc1cc(-c2ccc3ccc(-c4cc(OCCCN)c(OCCCN)c(OCCCN)c4)cc3c2)cc(OCCCN)c1OCCCN [Compound 116] the MIC50 [1] was 3.13 µg/mL (≈ 4.35 µM), the MIC50 [2] was 3.13 µg/mL (≈ 4.35 µM) and the MIC50 [3] was 25 µg/mL (≈ 34.8 µM). It also gave an MIC50 [4] of 25 µg/mL (≈ 34.8 µM), an MIC50 [5] of 25 µg/mL (≈ 34.8 µM) and an MIC ([6]; Escherichia coli, Table 2) of 3.13 µg/mL (≈ 4.35 µM). For the same compound, the “Selectivity (HC50/MIC) E. coli” value ([6]; HC50/MIC) was 200 and 209.6, the “MIC E. coli” value ([6]; Table 2) was “≈ 3 μg/ml” and the “Selectivity (HC50/MIC) S. aureus” value ([7]; HC50/MIC) was 200 and 209.6. The “selectivity, times higher than the selectivity of MSI-78” value ([7]; S. aureus and E. coli, relative to MSI-78) was about 20 times, the MIC ([7]; Staphylococcus aureus, Table 2, read-out: MIC S. aureus) was 3.13 µg/mL (≈ 4.35 µM) and the “MIC S. aureus” value ([7]; Table 2) was “≈ 3 μg/ml”. For the same compound, the EC50 [8] was 165 µg/mL (≈ 230 µM).
